Test systems include Escherichia coli DC2; Candida albicans C627; Escherichia coli UB1005; Escherichia coli JW0013.
Assay in all cases: ≥ marks a high value that may be exact or a test limit, other limits are often not marked, values filed in µg/mL are converted to µM
Assay [1] deals with Salmonella enterica subsp. enterica serovar Typhimurium ATCC 14028s.
Assay [2] has as its system Aeromonas salmonicida 97-4.
Assay [3] deals with Staphylococcus epidermidis C621.
Assay [4] concerns Salmonella enterica serovar typhimurium MS7953s.
The test system of assay [5] is Aeromonas salmonicida 99-1.
The subject of assay [6] is Staphylococcus aureus C623.
Assay [7] has as its system Escherichia coli CGSC 4908.
Assay [8] deals with Pseudomonas aeruginosa K799.
Assay [9] has as its system Pseudomonas aeruginosa Z61.
Assay [10] has as its system Staphylococcus aureus CCT 6538.
For assay [11], the system named is Enterococcus faecium CCT 5079.
In assay [12] the test system is Staphylococcus aureus CCT 2580.
In assay [13] the test system is Micrococcus luteus ATCC 4698.
Assay [14] concerns Salmonella enterica subsp. enterica serovar Typhimurium ATCC 14028.
In assay [15] the test system is Bacillus cereus ATCC 11778.
For assay [16], the system named is Streptococcus mutans AU159.
Assay [17] has as its system Streptococcus pneumoniae ATCC 11733.
In assay [18] the test system is Bacillus thuringiensis ATCC 10792.
In assay [19] the test system is Salmonella enterica subsp. enterica serovar Choleraesuis ATCC 10708.
Assay [20] has as its system Pseudomonas aeruginosa ATCC 15422.
The test system of assay [21] is Escherichia coli ATCC 11775.
The subject of assay [22] is Staphylococcus epidermidis ATCC 12228.
Assay [23] has as its system Pseudomonas aeruginosa ATCC 13388.
Assay [24] has as its system Escherichia coli ATCC 25922.
In assay [25] the test system is Escherichia coli CCT 1457.
In assay [26] the test system is Staphylococcus aureus ATCC 25923.
Assay [27] relates to Enterococcus hirae ATCC 10541.
The test system of assay [28] is Escherichia coli K12 MG1655.

≈ marks a conversion by molar mass, not a printed value. A value given as a limit tells only on which side of the number the result lay.

For the molecule `CC[C@H](C)[C@H](NC(=O)[C@H](C)NC(=O)CNC(=O)[C@H](Cc1cnc[nH]1)NC(=O)[C@@H](NC(=O)[C@H](Cc1ccccc1)NC(=O)[C@H](CCCCN)NC(=O)CNC(=O)[C@H](C)NC(=O)[C@H](CCCCN)NC(=O)[C@H](Cc1ccccc1)NC(=O)[C@@H](NC(=O)[C@H](Cc1cnc[nH]1)NC(=O)[C@H](CCCCN)NC(=O)[C@H](Cc1ccccc1)NC(=O)[C@@H](NC(=O)[C@H](CO)NC(=O)CNC(=O)[C@H](Cc1c[nH]c2ccccc12)NC(=O)CNC(=O)[C@H](C)N)[C@@H](C)CC)[C@@H](C)CC)[C@@H](C)CC)C(=O)N[C@@H](CCC(N)=O)C(=O)N[C@@H](C)C(=O)N[C@@H](Cc1cnc[nH]1)C(=O)N[C@@H](CC(N)=O)C(=O)N[C@@H](CC(=O)O)C(C)=O` [AGWGSIFKHIFKAGKFIHGAIQAHND], the MIC in assay [1] was 22.4 µM (≈ 64 µg/mL); in assay [2], 5.61 µM (≈ 16 µg/mL); in [3], 5.61 µM (≈ 16 µg/mL); in the assay on Escherichia coli DC2, 5.61 µM (≈ 16 µg/mL); in assay [4], 5.61 µM (≈ 16 µg/mL); in [5], 11.2 µM (≈ 32 µg/mL). Further, the MIC was 5.61 µM (≈ 16 µg/mL) in [6]; 22.4 µM (≈ 64 µg/mL) in the assay on Candida albicans C627; 5.61 µM (≈ 16 µg/mL) against Escherichia coli UB1005; 5.61 µM (≈ 16 µg/mL) in [7]; 11.2 µM (≈ 32 µg/mL) in [8]; 2.81 µM (≈ 7.99 µg/mL) in [9].
As to `CC[C@H](C)[C@H](NC(=O)[C@H](C)NC(=O)[C@H](C)NC(=O)[C@H](CCC(N)=O)NC(=O)CNC(=O)[C@H](CC(C)C)NC(=O)[C@H](Cc1cnc[nH]1)NC(=O)[C@H](CCCCN)NC(=O)[C@H](C)NC(=O)CNC(=O)[C@H](CCCCN)NC(=O)[C@H](CCCNC(=N)N)NC(=O)[C@H](CC(C)C)NC(=O)[C@H](Cc1c[nH]c2ccccc12)NC(=O)[C@H](CCCCN)NC(=O)[C@H](CCCCN)NC(=O)[C@H](Cc1c[nH]c2ccccc12)NC(=O)CN)C(=O)N[C@@H](CCCCN)C(=O)NCC(=O)N[C@@H](CC(C)C)C(=O)N[C@@H](C)C(=O)N[C@@H](CO)C(C)=O` [GWKKWLRKGAKHLGQAAIKGLAS], the MIC in assay [1] is 3.19 µM (≈ 7.99 µg/mL); in assay [2], 0.399 µM (≈ 0.999 µg/mL); in assay [3], 12.8 µM (≈ 32 µg/mL); against Escherichia coli DC2, 0.399 µM (≈ 0.999 µg/mL); in assay [4] it was 0.399 µM (≈ 0.999 µg/mL); in [5], 0.798 µM (≈ 2 µg/mL). Besides, the MIC in [6] was 6.39 µM (≈ 16 µg/mL); against Candida albicans C627, 3.19 µM (≈ 7.99 µg/mL); with Escherichia coli UB1005, 1.6 µM (≈ 4 µg/mL); in assay [7], 0.399 µM (≈ 0.999 µg/mL); in assay [8], 1.6 µM (≈ 4 µg/mL); in assay [9] it was 0.798 µM (≈ 2 µg/mL).
As to `CC[C@H](C)[C@H](N)C(=O)N[C@@H](CC(N)=O)C(=O)N[C@@H](Cc1c[nH]c2ccccc12)C(=O)N[C@@H](CCCCN)C(=O)N[C@@H](CCCCN)C(=O)N[C@H](C(=O)N[C@@H](CCCCN)C(=O)N[C@@H](CCCCN)C(=O)N[C@@H](CCCCN)C(=O)N[C@H](C(=O)N[C@@H](CCCCN)C(=O)NCC(=O)N[C@@H](CCSC)C(=O)N[C@@H](CC(C)C)C(N)=O)C(C)C)[C@@H](C)CC` [INWKKIKKKVKGML], the minimum inhibitory concentration (MIC) in [10] was not below 36.8 µM; in assay [11] it was 1.17 µM (≈ 2 µg/mL); in [12], 1.17 µM (≈ 2 µg/mL); in [13], 0.583 µM (≈ 1 µg/mL); in assay [14] it was 4.67 µM (≈ 8 µg/mL); in [15] it was not below 72.9 µM. Also, the MIC in assay [16] was 9.33 µM (≈ 16 µg/mL); in assay [17], 0.583 µM (≈ 1 µg/mL); in [18], not below 72.9 µM; in [19] it was 18.1 µM (≈ 31 µg/mL); in assay [20] it was 9.33 µM (≈ 16 µg/mL); in assay [21] it was 9.33 µM (≈ 16 µg/mL). Also, the MIC is 0.583 µM (≈ 1 µg/mL) in [22]; 9.33 µM (≈ 16 µg/mL) in assay [23]; 9.33 µM (≈ 16 µg/mL) in assay [24]; 0.583 µM (≈ 1 µg/mL) in [25]; 1.17 µM (≈ 2 µg/mL) in [26]; not below 36.8 µM in [27].
For `CC[C@H](C)[C@H](N)C(=O)N[C@@H](CC(N)=O)C(=O)N[C@@H](Cc1c[nH]c2ccccc12)C(=O)N[C@@H](CC(C)C)C(=O)N[C@@H](CCCCN)C(=O)N[C@H](C(=O)N[C@@H](C)C(=O)N[C@@H](C)C(=O)N[C@@H](C)C(=O)N[C@H](C(=O)N[C@@H](C)C(=O)NCC(=O)N[C@@H](CCSC)C(=O)N[C@@H](CC(C)C)C(N)=O)C(C)C)[C@@H](C)CC` [INWLKIAAAVAGML], the MIC is not below 170 µM in [10]; not below 340 µM in assay [11]; 0.68 µM (≈ 0.999 µg/mL) in [12]; not below 85 µM in [13]; 340 µM (≈ 500 µg/mL) in assay [14]; not below 85 µM in [15]. Moreover, the MIC in [16] is not below 340 µM; in [17] it was 1.36 µM (≈ 2 µg/mL); in assay [18], not below 85 µM; in [19], not below 340 µM; in assay [20] it was 21.1 µM (≈ 31 µg/mL); in assay [21], not below 340 µM. The MIC in [22] is 42.8 µM (≈ 63 µg/mL); in assay [23], not below 340 µM; in assay [24], 85 µM (≈ 125 µg/mL); in assay [25], 21.1 µM (≈ 31 µg/mL); in [26] it was 170 µM (≈ 250 µg/mL); in assay [27], not below 340 µM.
With `CC[C@H](C)[C@H](NC(=O)CNC(=O)[C@@H](NC(=O)[C@H](CCCCN)NC(=O)[C@H](C)NC(=O)[C@H](CC(C)C)NC(=O)[C@H](CS)NC(=O)[C@H](CCCCN)NC(=O)[C@H](Cc1c[nH]c2ccccc12)NC(=O)[C@@H](N)CCCCN)C(C)C)C(=O)N[C@@H](C)C(=O)N[C@@H](C)C(=O)N[C@@H](Cc1cnc[nH]1)C(=O)O` [KWKCLAKVGIAAH], the MIC in assay [28] is not below 89.8 µM.
As to `CC[C@H](C)[C@H](NC(=O)[C@H](CCCN=C(N)N)NC(=O)[C@H](CCCN=C(N)N)NC(=O)[C@@H]1CCCN1C(=O)[C@@H]1CCCN1C(=O)[C@H](CCCN=C(N)N)NC(=O)[C@@H]1CCCN1C(=O)[C@H](CCCN=C(N)N)NC(=O)[C@@H]1CCCN1C(=O)[C@H](CC(C)C)NC(=O)[C@H](Cc1ccc(O)cc1)NC(=O)[C@@H]1CCCN1C(=O)CNC(=O)[C@H](CCCCN)NC(=O)[C@H](CC(=O)O)NC(=O)[C@@H](N)C(C)C)C(=O)N[C@@H](Cc1ccc(O)cc1)C(=O)N[C@@H](CC(N)=O)C(=O)N[C@@H](CCCN=C(N)N)C(N)=O` [VDKGPYLPRPRPPRRIYNR], the MIC in the assay with Escherichia coli JW0013 was 1.4 µM (≈ 3.3 µg/mL).
Same read-out and setting: then `CC[C@H](C)[C@H](NC(=O)[C@H](CCCN=C(N)N)NC(=O)[C@H](CCCN=C(N)N)NC(=O)[C@@H]1CCCN1C(=O)[C@@H]1CCCN1C(=O)[C@H](CCCN=C(N)N)NC(=O)[C@@H]1CCCN1C(=O)[C@H](CCCN=C(N)N)NC(=O)[C@@H]1CCCN1C(=O)[C@H](CC(C)C)NC(=O)[C@H](CCCN=C(N)N)NC(=O)[C@@H]1CCCN1C(=O)[C@H](CCCCN)NC(=O)[C@H](CCCCN)NC(=O)[C@H](CC(=O)O)NC(=O)[C@@H](N)C(C)C)C(=O)N[C@@H](Cc1ccc(O)cc1)C(=O)N[C@@H](CC(N)=O)C(=O)N[C@@H](CCCN=C(N)N)C(N)=O` [VDKKPRLPRPRPPRRIYNR], with 0.663 µM (≈ 1.6 µg/mL).

For orientation: MIC means the lowest concentration found to suppress growth. A low value points to a more susceptible organism.
